This is an account of results in patent US20230159620A1, “COMPOSITIONS AND METHODS OF TREATMENT FOR VASCULAR DISEASES AND THROMBOSIS” (Washington University, priority 2021, published 2023).

Test [1] concerns integrin signaling kinases. The experiment in a line: Integrin signaling western blot, VSMCs. Type of test: cell-based, mouse. The settings on record: VSMCs adherent to coated wells, relative to inert protein control. The method, then:
Cells were resuspended in serum-free media (SFM) and incubated with gentle agitation to prevent cell attachment and reduce basal signaling. […] Cells were briefly centrifuged to the bottom of the wells and incubated for 8 min (for VSMCs) or 15 min (for THP-1 cells) before lysis with cell lysis buffer (#9803, Cell Signaling Technologies) containing a cocktail of protease and phosphatase inhibitors. Western blots were performed by standard techniques, as briefly follows. Protein content was determined using a bicinchoninic acid assay with BSA standards (#23225, Pierce™ BCA Protein Assay Kit). Cell lysates were then reduced with DTT in lithium dodecyl sulfate sample buffer (#NP0007, Invitrogen). Equal protein amounts were added to polyacrylamide gels (#4561086, BioRad) and electrophoresed prior to transferring to a nitrocellulose or polyvinylidene fluoride membrane (#1620260, BioRad). Membranes were blocked in 5% BSA/Tris-Buffered Saline with tween 20 for 30 min. The indicated primary antibodies were incubated with the pre-blocked membranes for overnight at 4° C. Membranes were washed with Tris-Buffered Saline with tween 20, probed with fluorescent secondary antibodies, and imaged. β-actin or β-tubulin served as a loading control.
(In general: Immunoblotting shows a protein as a band on a membrane.)

In test [2] the test system is HUVECs. Briefly: HUVEC adhesion assay. The test is classed as cell-based, human. The settings on record: wells coated with increasing concentrations, 10 minutes. The procedure:
Subsequently, wells were blocked with 100 mg/mL BSA and washed with DPBS. HUVECs were collected and resuspended in basal media. 5,000 cells were added to each well. Cells were centrifuged and incubated at 37° C. for 10 minutes. The plate was gently centrifuged upside down to remove non-adhered cells. Adhered cells were fixed with 4% paraformaldehyde, stained with 4′,6-diamidino-2-phenylindole (DAPI), and counted by automated microscopy as done previously.

Test [3] concerns AKT. The experiment in a line: AKT signaling immunoblot, hCASMCs. The settings on record: relative to BSA controls. The test is classed as cell-based, human. The method, then: Cellular reagents were purchased from various commercial vendors. Primary human umbilical vein endothelial cells (HUVECs) were obtained from Cell Applications Inc. and cultured according to the manufacture's recommendations. Primary human coronary artery smooth muscle cells were obtained from Invitrogen and were cultured according to the manufacture's recommendations. 293T cells were obtained from ATCC and were cultured according to the manufacture's recommendations. Mouse primary smooth muscle cells were obtained and cultured as described previously. Predesigned Silencer Select siRNA constructs targeting Pearl 1 and negative control siRNA were obtained from ThermoFisher. Transfections were performed using RNAiMAX or Lipofectamine 3000 transfection reagents according to the manufacturer's protocols. Cells were used for signaling assays 48 hours after transfection; efficient Pearl 1 knockdown or Pearl 1 overexpression was confirmed by immunoblot assays.
Prior to performing signaling assays, cells were trypsinized, centrifuged, suspended in basal media, and counted using an automated hemocytometer. Cells were further diluted in basal media to an assay-dependent concentration. […] Protein content was determined using a bicinchoninic acid assay with BSA standards (#23225, Pierce BCA Protein Assay Kit). […]

The test system of test [4] is platelets. The method, then:
(§1) Complete blood counts (CBC) and washed platelet counts were determined using a hematology analyzer Element HT5 (Heska, Loveland). […] For flow cytometry, diluted whole blood or isolated platelets were pre-incubated with their respective fluorescent antibodies for 15 minutes and fixed. For murine whole blood: CD41-VioBlue, CD61-PE (Mitlenyi Biotec, Bergisch Gladbach, Germany), CD42b-DL649, GPVI-FITC (Emfret, Eibelstadt, Germany) and for human whole blood and isolated platelets: CD41-FITC, CD61-APC, CD42b-PE (Biolegend, San Diego), GPVI-BV421 617 (BD, Franklin Lakes). Platelet surface receptor levels were quantified by flow cytometry on a 618 CytoFlex analyzer.
Samples were immediately fixed and run using a CytoFlex analyzer (Beckman Coulter, Pasadena) and analysis was performed with Kaluza software (Beckman Coulter, Pasadena).

The subject of test [5] is mTOR. The experiment in a line: mTOR signaling, phospho-array and immunoblot, HUVECs. Type of test: cell-based, human. The method, then:
Prior to performing signaling assays, cells were trypsinized, centrifuged, suspended in basal media, and counted using an automated hemocytometer. Cells were further diluted in basal media to an assay-dependent concentration. Cells were then incubated with gentle agitation for 60 minutes to prevent cell attachment and reduce basal signaling. PP1, Dynasore, MK-2206, and Rapamycin were diluted in DMSO and used in assay concentrations of 10 μM, 100 μM, 10 μM, and respectively, for the final 20-30 minutes of incubation in basal media. An equal volume of DMSO was used as the negative control condition. […] 1 μg Pearl 1 polyclonal antibody was added as a specific positive control. 20% growth media or 2% fetal bovine serum, labeled “Serum” in figures, was added as a non-specific positive control. The cells were centrifuged at 300G for 3 minutes with the exception of platelets, which were centrifuged at 500G for 5 minutes. The cells were then incubated at 37° C. for 8-45 minutes, depending on the cell type and pathway of interest. The cells were lysed in radioimmunoprecipitation buffer (RIPA) containing a cocktail of protease and phosphatase inhibitors and universal nuclease. Immunoblots were performed by standard techniques, as briefly follows. Protein content was determined using a bicinchoninic acid assay with BSA standards (#23225, Pierce BCA Protein Assay Kit). Cell lysates were then reduced with dithiothreitol (DTT) in lithium dodecyl sulfate (LDS) sample buffer (#NP0007, Invitrogen). Equal protein amounts were added to polyacrylamide gels (#4561086, BioRad) and electrophoresed prior to transferring to a nitrocellulose or polyvinylidene fluoride membrane (#1620260, BioRad). Membranes were blocked in 5% BSA/Tris-buffered saline (TBS) with 0.1% Tween 20 for 30 minutes. The indicated primary antibodies were incubated with the pre-blocked membranes overnight at 4° C. Membranes were washed with TBS with 0.1% Tween 20, probed with fluorescent secondary antibodies, and imaged. β-actin or β-tubulin served as a loading control. […]

Test [6] addresses Fibronectin (Mus musculus, UniProt P11276). The settings on record: enriched VSMC media.
Protocol: Affinity-based proteomics: Murine VSMCs were grown to confluence in serum-containing media and changed to serum-free media to generate enriched media. […] An aliquot was removed after incubation as the “input” fraction. Media was then added to a slurry of Pierce Anti-c-Myc Magnetic Beads+0.05% Tween 20 and incubated for 30 minutes while rocking at 4° C. The beads were then washed twice with Ca^2+ and Mg^2+-containing PBS (D8662, Sigma) +0.05% Tween 20 and twice with Ca^2+ and Mg^2+-containing PBS before a final resuspension in PBS. An aliquot of the beads was reserved as the pulldown fraction for validation. […] The samples were incubated for 4 hours prior to dialysis. Protease arrest (G-Biosciences) was added and excess biotin was dialyzed using a 10 kDa molecular weight cut-off (MWKO) Slide-A-Lyzer™ dialysis Cassette (ThermoFisher Scientific) in buffered saline+1 mM EDTA. The samples were then transferred to 10 kDa MWKO Vivasin column (Sartorius Stedim Biotech), centrifuged, resuspended in RIPA buffer, centrifuged, and added to pre-washed Pierce Streptavidin Magnetic Beads. The samples and beads were incubated for 1 hour at room temperature or overnight at 4° C. and then washed with the following solutions: RIPA buffer, 1M 732 KCl, 0.1M Na2CO3, 2M urea in 10 mM Tris HCl (pH=8.0), and PBS. The beads were then resuspended in PBS for peptide preparation.
The test system of test [7] is Notch. The settings on record: 4 hours on SVEP1 vs BSA. The method, then:
Cells were collected, resuspended in SFM, and incubated for 1 hr with gentle agitation before seeding on tissue culture wells that were precoated and blocked, as described in previous sections. Cells were collected for analysis after 4 hr of growth on the indicated substrate. Svep1SMC+/+ and Svep1SMCΔ/Δ VSMCs were collected for analysis after 72 hr of incubation in SFM to obtain basal Notch signaling.

The test system of test [8] is platelets. The method, then:
as §1
The source holds these as a separate data set.

Fibronectin, sequence (P11276 33-2477): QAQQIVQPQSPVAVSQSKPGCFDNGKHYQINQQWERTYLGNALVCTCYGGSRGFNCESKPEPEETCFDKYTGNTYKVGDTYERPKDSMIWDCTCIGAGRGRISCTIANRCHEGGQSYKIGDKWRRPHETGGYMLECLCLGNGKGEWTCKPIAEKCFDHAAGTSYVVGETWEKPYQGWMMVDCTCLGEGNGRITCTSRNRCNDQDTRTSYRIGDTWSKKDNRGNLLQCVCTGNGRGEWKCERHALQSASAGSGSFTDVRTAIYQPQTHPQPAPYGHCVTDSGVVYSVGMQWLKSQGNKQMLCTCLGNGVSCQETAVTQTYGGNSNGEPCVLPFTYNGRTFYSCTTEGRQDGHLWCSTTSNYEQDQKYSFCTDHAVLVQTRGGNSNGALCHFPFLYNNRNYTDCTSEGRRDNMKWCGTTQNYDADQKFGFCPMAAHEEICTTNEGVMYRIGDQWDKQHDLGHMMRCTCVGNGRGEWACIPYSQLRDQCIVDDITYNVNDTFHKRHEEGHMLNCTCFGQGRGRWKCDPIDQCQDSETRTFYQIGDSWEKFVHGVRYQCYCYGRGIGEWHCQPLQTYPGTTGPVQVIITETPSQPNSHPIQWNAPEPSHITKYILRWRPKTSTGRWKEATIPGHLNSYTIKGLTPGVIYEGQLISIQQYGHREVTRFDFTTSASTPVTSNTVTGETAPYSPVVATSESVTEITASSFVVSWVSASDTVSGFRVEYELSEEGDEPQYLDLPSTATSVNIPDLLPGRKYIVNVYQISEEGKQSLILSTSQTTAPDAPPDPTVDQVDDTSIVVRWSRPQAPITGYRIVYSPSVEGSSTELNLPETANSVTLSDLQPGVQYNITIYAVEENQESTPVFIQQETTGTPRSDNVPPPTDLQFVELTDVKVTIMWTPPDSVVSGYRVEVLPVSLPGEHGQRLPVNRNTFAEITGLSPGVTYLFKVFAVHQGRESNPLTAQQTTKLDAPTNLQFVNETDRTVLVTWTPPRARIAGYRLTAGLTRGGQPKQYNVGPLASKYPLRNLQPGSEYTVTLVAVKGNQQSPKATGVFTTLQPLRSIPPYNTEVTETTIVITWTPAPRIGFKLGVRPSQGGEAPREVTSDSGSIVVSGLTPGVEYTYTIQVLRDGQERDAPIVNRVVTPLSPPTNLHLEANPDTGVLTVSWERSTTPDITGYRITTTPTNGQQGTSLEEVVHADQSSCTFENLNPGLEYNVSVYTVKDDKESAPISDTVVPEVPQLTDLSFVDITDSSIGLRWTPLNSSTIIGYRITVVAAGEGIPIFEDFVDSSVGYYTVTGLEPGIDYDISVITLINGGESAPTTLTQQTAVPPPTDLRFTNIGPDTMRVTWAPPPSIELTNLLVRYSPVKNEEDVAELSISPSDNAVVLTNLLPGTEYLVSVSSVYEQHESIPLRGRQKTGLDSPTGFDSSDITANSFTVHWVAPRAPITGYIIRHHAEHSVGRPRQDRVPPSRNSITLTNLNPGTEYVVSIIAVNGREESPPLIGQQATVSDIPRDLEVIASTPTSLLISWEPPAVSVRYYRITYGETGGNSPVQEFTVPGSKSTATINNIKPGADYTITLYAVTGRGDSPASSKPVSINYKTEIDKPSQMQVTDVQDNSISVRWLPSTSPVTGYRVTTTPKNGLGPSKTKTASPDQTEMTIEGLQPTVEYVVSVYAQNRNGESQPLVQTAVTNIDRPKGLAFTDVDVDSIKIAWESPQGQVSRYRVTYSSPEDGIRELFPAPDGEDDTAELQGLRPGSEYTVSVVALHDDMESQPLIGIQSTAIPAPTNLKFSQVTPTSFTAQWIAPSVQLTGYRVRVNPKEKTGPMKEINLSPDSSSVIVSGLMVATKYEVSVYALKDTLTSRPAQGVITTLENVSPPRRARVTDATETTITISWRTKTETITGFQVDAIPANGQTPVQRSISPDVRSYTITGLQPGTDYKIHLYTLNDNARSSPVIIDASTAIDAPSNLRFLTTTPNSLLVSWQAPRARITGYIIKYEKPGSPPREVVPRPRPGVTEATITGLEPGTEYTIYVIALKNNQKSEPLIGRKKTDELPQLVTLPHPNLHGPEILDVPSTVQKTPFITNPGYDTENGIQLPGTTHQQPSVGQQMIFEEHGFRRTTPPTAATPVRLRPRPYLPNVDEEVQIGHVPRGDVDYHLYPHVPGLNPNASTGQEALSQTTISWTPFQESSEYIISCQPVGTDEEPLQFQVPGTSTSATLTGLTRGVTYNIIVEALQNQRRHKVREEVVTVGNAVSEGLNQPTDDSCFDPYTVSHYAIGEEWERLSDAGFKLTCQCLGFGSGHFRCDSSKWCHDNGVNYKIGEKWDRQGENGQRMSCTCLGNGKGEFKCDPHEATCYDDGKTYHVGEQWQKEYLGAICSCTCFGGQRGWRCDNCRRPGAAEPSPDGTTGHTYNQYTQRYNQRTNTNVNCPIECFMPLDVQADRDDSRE

“SVEP1: recombinant murine SVEP1 extracellular matrix protein with Myc and poly-histidine tag, expressed in 293F cells”: in test [1], the “phosphorylation of FAK, Paxillin, Src, ERK and p38” value was “increased phosphorylation”. Further, the “adherence of HUVECs to coated protein” value in test [2] is “dose-dependent manner up to 20 pg/mL”. Moreover, the AKT signaling result in test [3] is “activated”. For the same substance, the platelet receptor density entry in test [4] (freshly isolated human platelets, soluble SVEP1) was “lower levels of receptor CD42b and CD61”. Also, the “integrin aIIbβ3 activation (active CD41/61)” value in test [4] (isolated human platelets, basal and with ADP, TRAP6) is “increased”. Moreover, in test [4] (isolated human platelets, with ADP, TRAP6), the P-selectin expression result was “increased”. Further, the “phosphorylated mTOR (Ser 2448) and p70S6K Thr 389, immunoblot” value in test [5] (10 or 30 minutes) was “activation of mTOR signaling”. Further, in test [5] (10 minutes of exposure), the AKT pathway phospho-proteins entry is given as “Few changes”. Also, the “mTOR pathway phospho-proteins (p70S6K, RPS6, 4E-BP1)” value in test [5] (30 minutes of exposure) is “elevated”. The “pulldown of Fibronectin” value in test [6] is reported as “confirmed”. For the same substance, the “expression of canonical Notch targets Hey2 and Hes 1” value in test [7] is reported as “significantly increased expression”. Also, in test [8] (platelets from mice compared to humans), the “platelet aggregation and agglutination” value is listed as “notably milder”. Also, the “platelet aggregation (decrease in whole blood platelet count)” value in test [8] (soluble recombinant SVEP1, human whole blood) is “induced spontaneous platelet aggregation and agglutination”.
